Entries after “also recorded” stand apart in the source; their conditions may differ. Where a name gives a salt, the structure may show the parent alone. Read-outs that look alike come from different tables or passages of the source.
Tests used:
RBL-2H3 cells [1] = assay: Antigen (DNP-BSA)-induced β-hexosaminidase release (degranulation) in IgE-sensitized RBL-2H3 cells; type: cell-based, rat; conditions: for blockade of IgE-dependent activation and degranulation of metachromatic cells, agent alone: antigen-induced maximal degranulation (FIG. 21-28); for effect on antigenic degranulation / β-hexosaminidase release: DNP-BSA 5 ng/ml and 40 ng/ml, antagonist concentration not stated
Source text: The rat basophilic cell line RBL-2H3 is an art recognized model for studying the activation of metachromatic cells through FcεRI (Oliver et al., “Signal transduction and cellular response in RBL-2H3 mast cells,” Prog. Allergy 42:185-245, 1988).
(§1) The below experiments used the rat basophilic cells RBL-2H3 commercially available from the American Type Culture Collection (ATCC; Manassas, Va.) under accession number CRL-2256. RBL-2H3 cells were passively sensitized with mouse IgE anti-dinitrophenyl conjugated to bovine serum albumin (DNP-BSA) monoclonal antibody for 22 hours, and then stimulated with DNP-BSA (antigen) to induce cell degranulation (FIG. 1).

RBL-2H3 cells [2] = assay: Cell viability by trypan blue exclusion test in RBL-2H3 cells; type: cell-based, rat; conditions: IgE-sensitized RBL-2H3 cells stimulated with DNP-BSA (FIG. 3)
Procedure: as §1, with “1). To address the issue of an autocrine tachykinergic regulation of metachromatic cell degranulation in response to antigenic activation, IgE-sensitized RBL-2H3 cells were pre-treated with a selective NK-1 receptor antagonist prior to antigen stimulation.” for “1).”

RBL-2H3 cells [3] = assay: Histamine immunoreactivity (intracellular histamine pools) in IgE-sensitized RBL-2H3 cells stimulated with DNP-BSA; type: cell-based, rat; conditions: pretreatment 10 μM; DNP-BSA 40 ng/ml
Source text: Data analysis using the macro built under the Image-Pro Plus platform enabled the representation of the frequency distribution of the maximal intensity for histamine immunoreactivity into RBL-2H3 cells. We arbitrarily divided basophils into six subgroups according to the range of maximal fluorescence intensity detected into the cells, e.g., 300 to 499 IAU (intensity arbitrary unit) or 900-1100 IAU. […] Therefore, frequency distribution analyses confirmed the β-hexosaminidase data by showing that blocking NK-1 receptors inhibits FcεRI clustering-induced metachromatic cell degranulation.

RBL-2H3 cells [4] = assay: Calcium ionophore A23187-induced β-hexosaminidase release in RBL-2H3 cells; type: cell-based, rat
Procedure: RBL-2H3 cells were stimulated with the calcium ionophore A23187 (SigmaAldrich #C7522) in a concentration-dependent manner to induce metachromatic cell degranulation FIG. 10). […] The maximal inhibition is obtained at the concentration of 10 μM of L-703,606 (FIG. 11).

RBL-2H3 cells [5] = assay: Intracellular calcium changes (Fluo-3 AM, epifluorescence microscopy) in RBL-2H3 cells; type: cell-based, rat; conditions: Fluo-3 AM loaded cells (FIG. 12)
NK-1 receptors = target: T1, NK-1 receptors (Homo sapiens, UniProt P25103); conditions: CHO cells expressing NK-1 receptors, cited from earlier work
T1 construct: expressed in transfected cells; host or cells: CHO cells
T1 sequence (P25103 whole entry): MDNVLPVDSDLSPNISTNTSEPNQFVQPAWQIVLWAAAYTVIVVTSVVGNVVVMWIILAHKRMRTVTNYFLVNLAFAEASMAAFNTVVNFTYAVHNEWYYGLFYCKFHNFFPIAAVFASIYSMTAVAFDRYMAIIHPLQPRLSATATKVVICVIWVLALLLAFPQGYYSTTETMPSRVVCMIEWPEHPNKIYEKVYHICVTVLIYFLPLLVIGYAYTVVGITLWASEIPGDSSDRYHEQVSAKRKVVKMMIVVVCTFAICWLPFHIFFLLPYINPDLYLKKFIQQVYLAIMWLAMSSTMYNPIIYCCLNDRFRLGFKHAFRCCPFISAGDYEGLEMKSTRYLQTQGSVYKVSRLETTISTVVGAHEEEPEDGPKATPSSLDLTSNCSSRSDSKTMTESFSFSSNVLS

neurokinin-1 receptor [6] = target: neurokinin-1 receptor (Homo sapiens, UniProt P25103); conditions: cited from earlier work
neurokinin-1 receptor (Homo sapiens, UniProt P25103), sequence (P25103 whole entry): as above

neurokinin-1 receptor [7] = target: T2, neurokinin-1 receptor (Rattus norvegicus, UniProt P14600); conditions: rat brain; cited from earlier work
T2 construct: from tissue; host or cells: rat brain
T2 sequence (P14600 whole entry): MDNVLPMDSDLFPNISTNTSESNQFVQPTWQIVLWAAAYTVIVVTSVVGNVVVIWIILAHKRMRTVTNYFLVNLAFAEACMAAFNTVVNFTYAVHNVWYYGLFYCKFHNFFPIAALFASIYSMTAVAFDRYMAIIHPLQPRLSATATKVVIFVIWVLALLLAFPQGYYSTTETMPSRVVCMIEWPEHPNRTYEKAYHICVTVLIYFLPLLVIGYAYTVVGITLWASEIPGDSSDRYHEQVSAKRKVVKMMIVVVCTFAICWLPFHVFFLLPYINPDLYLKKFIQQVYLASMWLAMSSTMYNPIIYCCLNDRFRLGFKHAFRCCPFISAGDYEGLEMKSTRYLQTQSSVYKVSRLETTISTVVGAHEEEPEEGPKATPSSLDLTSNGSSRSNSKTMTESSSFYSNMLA

neurokinin-1 receptor [8] = target: T3, neurokinin-1 receptor (Cavia porcellus, UniProt P30547); conditions: guinea pig ileum; cited from earlier work
T3 construct: pA2: 7.16 (guinea pig ileum); from tissue; host or cells: guinea pig ileum
T3 sequence (P30547 whole entry): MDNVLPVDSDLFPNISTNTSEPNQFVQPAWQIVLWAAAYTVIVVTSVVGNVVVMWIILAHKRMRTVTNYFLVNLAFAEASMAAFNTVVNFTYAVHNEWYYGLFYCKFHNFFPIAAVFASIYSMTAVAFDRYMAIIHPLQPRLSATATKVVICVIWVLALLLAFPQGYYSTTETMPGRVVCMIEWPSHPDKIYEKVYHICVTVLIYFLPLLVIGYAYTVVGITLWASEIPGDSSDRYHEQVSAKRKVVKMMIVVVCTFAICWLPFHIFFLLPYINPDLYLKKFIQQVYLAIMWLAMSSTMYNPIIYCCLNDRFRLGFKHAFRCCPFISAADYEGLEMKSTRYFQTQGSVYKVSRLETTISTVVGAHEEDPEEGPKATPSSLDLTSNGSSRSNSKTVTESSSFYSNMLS

[9] = antagonist 10 μM, DNP-BSA 5 ng/ml
[10] = antagonist 10 μM, DNP-BSA 40 ng/ml

## COc1ccc(-c2cc3nccn3c(Nc3ncccc3C(N)=O)n2)cc1OC [BAY 61-3606]
RBL-2H3 cells [1]
  blockade of IgE-dependent activation and degranulation of metachromatic cells, agent alone: potent blocker

## CCCCCCCCc1ccc(CCC(N)(CO)CO)cc1.Cl [FTY720]
RBL-2H3 cells [1]
  blockade of IgE-dependent activation and degranulation of metachromatic cells, agent alone: potent blocker

## Ic1ccccc1CNC1C2CCN(CC2)C1C(c1ccccc1)c1ccccc1.O=C(O)C(=O)O [L-703,606, cis-2-(Diphenylmethel)-N-([2-iodophenyl]methyl)-1-azabicyclo (2.2.2) octan-3-amine]
RBL-2H3 cells [1]; L-703,606 5 μM alone, antigen 40 ng/ml
  effect on antigen-induced maximal degranulation: weak effect
RBL-2H3 cells [1]; L-703,606 10 μM, Tacrolimus 0.01 μM
  effect on inhibition by Tacrolimus of antigen-induced maximal cell degranulation: potentiates
RBL-2H3 cells [1]; L-703,606 10 μM, cyclosporin A 0.1 μM
  effect on inhibition by cyclosporin A of antigen-induced maximal cell degranulation: potentiates
RBL-2H3 cells [1]; L-703,606 1, 5 and 10 μM, FTY720 5 μM
  effect on inhibition by FTY720 of antigen-induced maximal cell degranulation: potentiates
RBL-2H3 cells [1]; L-703,606 5 and 10 μM, BAY 61-3606 100 and 250 nM
  effect on inhibition by BAY 61-3606 of antigen-induced maximal cell degranulation: potentiates
RBL-2H3 cells [1]; L-703,606 5 and 10 μM, LY-294,002 1 and 10 μM
  effect on inhibition by LY-294,002 of antigen-induced maximal cell degranulation: potentiates
RBL-2H3 cells [1]; L-703,606 5 and 10 μM, PD98059 5, 10 and 25 μM
  effect on inhibition by PD98059 of antigen-induced maximal cell degranulation: potentiates
RBL-2H3 cells [1]; L-703,606 5 and 10 μM, PP1 1 and 5 μM
  effect on inhibition by PP1 of antigen-induced maximal cell degranulation: potentiates
RBL-2H3 cells [1]; L-703,606 5 and 10 μM, SB202190 10 and 25 μM
  effect on inhibition by SB202190 of antigen-induced maximal cell degranulation: potentiates
RBL-2H3 cells [1]; [9]
  effect on antigen-induced 50% of cell degranulation: completely abolished
RBL-2H3 cells [1]; [10]
  reduction of maximal antigenic degranulation response: ~50%
RBL-2H3 cells [1]; antagonist 1 to 10 μM, DNP-BSA 5 ng/ml or 40 ng/ml
  inhibition of antigen-induced β-hexosaminidase release: concentration-dependent inhibition
RBL-2H3 cells [1]; no antigen, data not shown
  effect on basal release of β-hexosaminidase: did not change
RBL-2H3 cells [1]; range tested 1 to 10 μM
  most efficient inhibitory concentration for β-hexosaminidase release: 10 µM
RBL-2H3 cells [2]
  cell viability (trypan blue exclusion): did not alter cell viability
RBL-2H3 cells [2]; listed as L-703,606 oxalate salt
  cell viability (trypan blue exclusion): not attributable to cell death
RBL-2H3 cells [3]
  depletion of histamine intracellular pools: mostly abolished
RBL-2H3 cells [4]; calcium ionophore A23187
  concentration giving maximal inhibition of calcium ionophore-induced degranulation: 10 µM
RBL-2H3 cells [4]; calcium ionophore A23187 (FIG. 11)
  inhibition of calcium ionophore-induced activation and degranulation: inhibit, in a concentration-dependent manner
RBL-2H3 cells [5]
  effect on calcium ionophore-induced calcium signals: unlikely to be attributable to inhibition of calcium ionophore-induced extracellular calcium signals
NK-1 receptors
  IC50: 2 nM
neurokinin-1 receptor [6]; 35% sites
  Kd: 1.5 nM
neurokinin-1 receptor [6]; 65% sites
  Kd: 0.04 nM

## FC(F)(F)c1cc(CO[C@@H]2CCCN[C@@H]2c2ccccc2)cc(C(F)(F)F)c1 [L-733,060, ((2S,3S)-3-[[3,5-bis (Trifluoromethyl)phenyl]methoxy]-2-phenylpiperidine hydrochloride]
RBL-2H3 cells [1]; [9]
  effect on antigen-induced 50% of cell degranulation: completely abolished
RBL-2H3 cells [1]; [10]
  reduction of maximal antigenic degranulation response: ~55%
NK-1 receptors; read-out: IC50
  IC50: 1 nM

## Cl.O=c1cc(N2CCOCC2)oc2c(-c3ccccc3)cccc12 [LY-294,002]
RBL-2H3 cells [1]
  blockade of IgE-dependent activation and degranulation of metachromatic cells, agent alone: potent blocker

## COc1cc(C(=O)N2CC[C@](CCN3CCC(C(N)=O)(c4ccccc4)CC3)(c3ccc(Cl)c(Cl)c3)C2)cc(OC)c1OC [MDL 105,212]
RBL-2H3 cells [1]
  effect on antigenic degranulation / β-hexosaminidase release: lack of inhibition
RBL-2H3 cells [1]; antagonist 1 μM (but not 10 μM), DNP-BSA 40 ng/ml
  effect on cell degranulation induced by 40 ng/ml DNP-BSA: significantly increased
RBL-2H3 cells [1]; antagonist at both 1 μM and 10 μM, DNP-BSA 5 ng/ml
  effect on antigen concentration leading to 50% of maximal degranulation: had no effect

## COc1cccc(-c2cc(=O)c3ccccc3o2)c1N [PD98059]
RBL-2H3 cells [1]
  blockade of IgE-dependent activation and degranulation of metachromatic cells, agent alone: potent blocker

## COc1ccccc1CC(=N)N1C[C@@H]2C(=O)CCC(c3ccccc3)(c3ccccc3)[C@@H]2C1 [RP 67580, (3aR,7aR)-Octahydro-2-[1-imino-2-(2-methoxyphenyl)ethyl]-7,7-diphenyl-4H-isoindol]
RBL-2H3 cells [1]; [9]
  decrease of degranulation induced by 5 ng/ml DNP-BSA: ~50%
RBL-2H3 cells [1]; [10]
  effect on maximal antigenic degranulation: no significant effect
neurokinin-1 receptor [7]
  IC50: 10 nM
neurokinin-1 receptor [8]
  pA2: 7.16

## Oc1ccc(-c2nc(-c3ccncc3)c(-c3ccc(F)cc3)[nH]2)cc1 [SB202190]
RBL-2H3 cells [1]
  blockade of IgE-dependent activation and degranulation of metachromatic cells, agent alone: potent blocker

## C=CC[C@@H]1/C=C(\C)C[C@H](C)C[C@H](OC)[C@H]2O[C@@](O)(C(=O)C(=O)N3CCCC[C@H]3C(=O)O[C@H](/C(C)=C/[C@@H]3CC[C@@H](O)[C@H](OC)C3)[C@H](C)[C@@H](O)CC1=O)[C@H](C)C[C@@H]2OC [Tacrolimus]
RBL-2H3 cells [1]
  blockade of IgE-dependent activation and degranulation of metachromatic cells, agent alone: potent blocker

## C[C@@H]1C[C@H]2[C@@H]3CCC4=CC(=O)C=C[C@]4(C)[C@@]3(F)[C@@H](O)C[C@]2(C)[C@@]1(O)C(=O)CO [dexamethasone]
RBL-2H3 cells [1]; dexamethasone 10^−8 M alone, antigen 40 ng/ml
  reduction of maximal degranulation: 50%

## [D-Arg^1, D-Phe^5, D- Trp^7,9, Leu^11] substance P [Antagonist D]
RBL-2H3 cells [1]
  effect on antigenic degranulation / β-hexosaminidase release: did not alter; also recorded: lack of inhibition
neurokinin-1 receptor [6]
  Affinity (selectivity in words): Non-selective
